Measured values as given in the supplement of paper PMC7046801.
Structures can show the parent of a compound that is named as a salt.

Experiments:
Conditions in all cases: 24 h
[1] = test system: NHEK immortalized keratinocytes
[2] = test system: NKTC primary neonatal keratinocytes
[3] = test system: NKTC primary neonatal keratinocytes; test: IC50 cell viability (CellTiter-Glo)
[4] = test system: NHEK immortalized keratinocytes; test: IC50 cell viability (CellTiter-Glo)

SMILES | IC50 cell viability (WST-8) [1] [µM] | IC50 cell viability (WST-8) [2] [µM] | IC50 cell viability [3] [µM] | IC50 cell viability [4] [µM]
O=c1[nH]sc2ccccc12 [1,2-Benzisothiazolin-3-one] | 1.68 | 21.4 | 16 | 1.26
N#CCCC(Br)(C#N)CBr (centres undefined) [1,2-Dibromo-2,4-dicyanobutane] | > 88 | > 88 | 77.7 | 60.4
C[C@H](O)CCO [1,3-Butanediol] | 5.52 |  |  | 13.5
O=[N+]([O-])c1ccc(Cl)c([N+](=O)[O-])c1 [1-Chloro-2,4-dinitrobenzene] | 4.76 | 9.18 | 9.18 | 5.43
CCCCCCCCCCCCN1CCCC1=O [1-Dodecyl-2-pyrrolidinone] | 15.8 |  | 29.1 | 18.4
O=C(c1ccccc1)c1ccc(O)cc1O [2,4-Dihydroxybenzophenone] | 44.4 |  |  | 58.1
C=CC(=O)OCCO [2-Hydroxyethyl acrylate] | 17.4 |  |  | 35.1
Cn1sccc1=O [2-Methyl-4-isothiazolin-3-one hydrochloride] | 32.2 |  |  | 39.9
CCCCNC(=O)OCC#CI [3-Iodo-2-propynyl-N-butylcarbamate] | > 88 |  |  | 76.7
COc1ccc(C(C)=O)cc1 [4'-Methoxyacetophenone] | 53.4 |  |  | 55.5
Cc1c2ccccc2c(C)c2c1ccc1ccccc12 [7,12-Dimethylbenz(a)anthracene] | 46.2 | 46.2 | 46.2 | 46.2
CCCCCCCCCCCC[N+](C)(C)Cc1ccccc1 [Benzyldimethyldodecylammonium chloride] | 3.36 | 22.2 | 43.1 | 2.91
CC(C)(c1ccc(OCC2CO2)cc1)c1ccc(OCC2CO2)cc1 (centres undefined) [Bisphenol A diglycidyl ether] | 43.7 | 65.2 | 71.2 | 39.1
O=[N+]([O-])C(Br)(CO)CO [Bronopol] | 24.9 | 53.8 | 73.2 | 24.1
CC1=CC(=C(c2ccc(N)cc2)c2ccc(N)cc2)C=CC1=N [C.I. Basic Violet 14] |  |  |  | 1.16
CC(C)(C)C(=O)C(Oc1ccc(Cl)cc1)n1ccnc1 (centres undefined) [Climbazole] |  |  |  | 0.42
O=C1OC2(c3cc(Br)c(O)c(Br)c3Oc3c2cc(Br)c(O)c3Br)c2c(Cl)c(Cl)c(Cl)c(Cl)c21 [D&C Red 27] |  | 22.3 | 28.1 | 44.9
O=c1c(-c2ccccc2)c1-c1ccccc1 [Diphenylcyclopropenone] | 36.6 | 5.47 | 5.69 | 30.8
CCCCCCCCCCCC(=O)O [Dodecanoic acid] | 58.1 | > 88 | > 88 | 58.1
CCCCCCCCCCCCOC(=O)c1cc(O)c(O)c(O)c1 [Dodecyl gallate] | 23.5 |  |  | 21
CCCCCCCCCCCCc1ccc(S(=O)(=O)O)cc1 [Dodecylbenzenesulfonic acid] | 29.5 | 23 | 29.9 | 25.8
Cc1ccc(/C=C2/C(=O)C3(C)CCC2C3(C)C)cc1 (centres undefined) [Enzacamene] | > 88 | > 88 | 71.6 | 71.3
CCCCN(CCC(=O)OCC)C(C)=O [Ethyl 3-(N-butylacetamido)propionate] |  |  |  | 21
O=CCCCC=O [Glutaraldehyde] | 24.4 | > 88 | > 88 | 20.2
Oc1c(Cl)cc(Cl)c(Cl)c1Cc1c(O)c(Cl)cc(Cl)c1Cl [Hexachlorophene] | 0.37 | 2.28 | 18.8 | 0.39

SMILES | IC50 cell viability (WST-8) [1] [µM] | IC50 cell viability (WST-8) [2] [µM] | IC50 cell viability [3] [µM] | IC50 cell viability [4] [µM]
CC1(C)CNC(=NN=C(/C=C/c2ccc(C(F)(F)F)cc2)/C=C/c2ccc(C(F)(F)F)cc2)NC1 [Hydramethylnon] | 27 | 51.3 | 38.9 | 17
Oc1ccc(O)cc1 [Hydroquinone] |  |  |  | 39.1
C=CC(=O)OCCCCCCCC(C)C [Isodecyl acrylate] | 1.54 |  |  | 3.55
CC(=O)N1CCN(c2ccc(OCC3COC(Cn4ccnc4)(c4ccc(Cl)cc4Cl)O3)cc2)CC1 (centres undefined) [Ketoconazole] | 14 |  |  | 26.4
CN=C1C=CC(=C(c2ccc(N(C)C)cc2)c2ccc(N(C)C)cc2)C=C1 [Methyl Violet] | 0.51 |  |  | 0.64
CN(C)c1ccc(C(=C2C=CC(=[N+](C)C)C=C2)c2ccc(N(C)C)cc2)cc1 [Methylrosaniline chloride] | 1.51 | 42.8 | 41.5 | 1.99
CCCCC(CC)COC(=O)C(C#N)=C(c1ccccc1)c1ccccc1 (centres undefined) [Octocrylene] | 9.8 |  |  | 16.6
Oc1c(Cl)c(Cl)c(Cl)c(Cl)c1Cl [Pentachlorophenol] | 0.12 | 1.18 | 4.23 | 0.51
O=C1C=CC(=C(c2ccc(O)cc2)c2ccccc2S(=O)(=O)O)C=C1 [Phenol Red sodium salt] |  |  |  | 79.9
O=CCc1ccccc1 [Phenylacetaldehyde] | > 88 |  |  | > 88
CC(=O)[O][Hg][c]1ccccc1 [Phenylmercuric acetate] | 0.01 | 0.38 | 0.37 | 0.06
CCCCCCCCCCCCCCCCOCCOCCOCCOCCOCCOCCOCCOCCOCCOCCOCCOCCOCCOCCOCCOCCOCCOCCOCCOCCO [Polyethylene glycol (20) hexadecyl ether] | 13.3 |  |  | 
[K+].[K+].[O]=[Cr](=[O])([O-])[O][Cr](=[O])(=[O])[O-] [Potassium dichromate] | 1.97 | 2.3 | 2.53 | 1.66
CC(=O)OCC(C)OC(C)=O (centres undefined) [Propylene glycol diacetate] | 27.7 |  |  | 35.7
C=C/C=C\CC1=C(C)[C@@H](OC(=O)[C@@H]2[C@@H](/C=C(\C)C(=O)OC)C2(C)C)CC1=O.C=C/C=C\CC1=C(C)[C@@H](OC(=O)[C@@H]2[C@@H](C=C(C)C)C2(C)C)CC1=O [Pyrethrins] | 34.8 |  |  | 
CCN(CC)c1ccc2c(-c3ccccc3C(=O)O)c3ccc(=[N+](CC)CC)cc-3oc2c1 [Rhodamine B] |  |  |  | 42.8
COC(C)(C)CCC[C@H](C)C/C=C/C(C)=C/C(=O)OC(C)C [S-Methoprene] | 82.5 |  |  | 82.5
CCN(CC)c1ccc(C(=C2C=CC(=[N+](CC)CC)C=C2)c2ccc(S(=O)(=O)O)cc2S(=O)(=O)[O-])cc1 [Sulfan blue] |  |  |  | 41.3
N#CC(Cl)(Cl)Cl [Trichloroacetonitrile] | 1.2 | 6.07 | 5.34 | 0.8
O=C(Nc1ccc(Cl)cc1)Nc1ccc(Cl)c(Cl)c1 [Triclocarban] | 2.31 |  | 6.78 | 2.7
Oc1cc(Cl)ccc1Oc1ccc(Cl)cc1Cl [Triclosan] | > 88 | 87.4 | > 88 | 55.1
C=CC(=O)OCC(CC)(COC(=O)C=C)COC(=O)C=C [Trimethylolpropane triacrylate] | 24.9 | 24.9 | 20.6 | 24.9
C=C1CC[C@H](O)C/C1=C/C=C1\CCC[C@]2(C)[C@@H]([C@H](C)CCCC(C)C)CC[C@@H]12 [Vitamin D3] | 12.7 |  |  | 13.7
CNc1ccc(O)cc1 [p-Methylaminophenol sulfate] | 8.53 | 13.9 | 24.3 | 6.78
CC(C)(C)c1cc(O)ccc1O [tert-Butylhydroquinone] | > 88 |  | 58.1 | 77.7
